Assay results published in patent publication US12571764B2, “Receptor-based biosensors” (STATE OF ISRAEL, MINISTRY OF AGRICULTURE & RURAL …, priority 2020, dated 2026).

Key:
[1] = molecular target: T1, Aedes aegypti OR8 (AaOR8) (Aedes aegypti, UniProt Q16MN0); experiment: Activation of mosquito odorant receptor OR8 from Aedes aegypti (AaOR8), FIG. 17A; format: cell-based; details: molar concentration, read-out: A. agypti OR8 EC50
T1 sequence (Q16MN0 1-422): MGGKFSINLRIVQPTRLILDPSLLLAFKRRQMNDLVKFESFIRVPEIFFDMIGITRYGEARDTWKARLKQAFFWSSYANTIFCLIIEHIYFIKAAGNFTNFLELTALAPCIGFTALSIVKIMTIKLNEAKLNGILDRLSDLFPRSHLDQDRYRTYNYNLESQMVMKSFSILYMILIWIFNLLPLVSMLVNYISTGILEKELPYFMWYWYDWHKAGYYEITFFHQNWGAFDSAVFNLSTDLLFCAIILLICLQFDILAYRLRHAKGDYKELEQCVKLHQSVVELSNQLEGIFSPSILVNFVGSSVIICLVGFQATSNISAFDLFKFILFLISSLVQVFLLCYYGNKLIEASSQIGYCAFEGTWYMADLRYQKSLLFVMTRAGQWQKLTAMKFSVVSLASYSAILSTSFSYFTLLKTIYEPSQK
T1 sequence (Q178U6 1-478 partner): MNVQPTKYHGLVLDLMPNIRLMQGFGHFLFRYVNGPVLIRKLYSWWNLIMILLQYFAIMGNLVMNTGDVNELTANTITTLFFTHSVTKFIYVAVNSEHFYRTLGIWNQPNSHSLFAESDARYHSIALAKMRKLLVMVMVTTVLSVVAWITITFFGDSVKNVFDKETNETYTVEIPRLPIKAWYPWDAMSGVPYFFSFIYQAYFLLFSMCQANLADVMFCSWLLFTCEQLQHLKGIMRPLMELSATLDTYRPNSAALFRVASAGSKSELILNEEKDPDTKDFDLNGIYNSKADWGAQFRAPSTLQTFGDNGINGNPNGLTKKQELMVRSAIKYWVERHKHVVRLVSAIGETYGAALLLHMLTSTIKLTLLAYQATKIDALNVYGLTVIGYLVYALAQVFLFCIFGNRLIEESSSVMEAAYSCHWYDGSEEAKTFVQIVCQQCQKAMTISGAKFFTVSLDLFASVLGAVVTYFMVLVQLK
From the text: (§1) FIG. 17B-OR8 is an enantioselective octenol receptor, distinguishing between the (R)-enantiomer, which is the most abundant form in nature, and the(S)-enantiomer.
(§2) Orco expression, electrophysiology and purification. Supply of Orco-rich membranes will be predicated on the functional validation carried out using the two-electrode voltage clamp of Xenopus oocytes expressing this receptor. Expression and recordation of the pharmacological activity of mosquito odorant receptor complexes (ORx-Orco) in Xenopus oocytes has been studies extensively. This technique to study the agonist activity of Orco agonists (e.g., VUAA1) and antagonists (e.g., octadienal and carvacrol) (as shown in FIG. 4A) or associated with ORx has been achieved. In some cases Orco rather than ORx was used in order to reduce potential pitfalls associated with OR complexes. In some cases, ORx alone is not functional without its co-receptor chaperone. Two types of expression vectors adapted to Xenopus oocyte expression are used. pSP64DV was used to record currents reaching over 1 μA from Orco exposed to VUAA1, indicating high protein levels (FIG. 4B). […] This plasmid functions well in Xenopus oocytes and adds a constitutively fluorescent mKate2 tag on the C-terminus of the protein of interest (here Orco) that can be directly or indirectly (fluorescence immunohistochemistry) detected by confocal scanning laser microscopy. […]

[2] = system: Toxorhynchites amboinensis OR8 (TaOR8); experiment: Activation of mosquito odorant receptor OR8 from Toxorhynchites amboinensis (TaOR8), FIG. 17A; format: cell-based; details: molar concentration, read-out: T. amboinensis OR8 (TaOR8) EC50
From the text: as §1, §2

[3] = system: OR8 from Toxorhynchites amboinensis (TaOR8); experiment: mosquito odorant receptor 8 activation by odorants (TaOR8); format: cell-based; details: FIG. 17A
From the text: as §1
(§3) Indeed, any modifications of the double bond saturation, side chain length, chiral center position, or functional substitution of the (R)-1-octen-3-ol chemical structure is sufficient to prevent OR8 from being activated (FIG. 17B).

[4] = system: OR8 from Aedes aegypti (AaOR8); experiment: mosquito odorant receptor 8 activation by odorants (AaOR8); format: cell-based; details: FIG. 17A
From the text: as §1, §3

[5] = system: mosquito odorant receptors known as OR8; experiment: mosquito odorant receptor OR8 activation and odorant tuning; format: cell-based; details: FIG. 17A
From the text: as §3
These studies established OR8 as a sensitive enantioselective odorant receptor, whose narrow odorant tuning is optimal in the nanomolar range, which is excellent in the field of receptor pharmacology. […] OR8 is the epitome of receptor selectivity, being able to reject any slight modification on the (R)-1-octen-3-ol backbone manifesting in complete activation shutdown (FIG. 17B). At a low concentration the receptor is specific to (R)-1-octen-3-ol (FIG. 17C), which is a desirable property for the purpose of using this receptor to detect early signs of microbial contamination or presence.

Aedes aegypti Orco = molecular target: T2, Aedes aegypti Orco (Aedes aegypti, UniProt Q178U6); experiment: two-electrode voltage clamp of Xenopus oocytes expressing Orco; format: cell-based; details: for effect on VUAA1-activated Orco: oocytes expressing Aedes aegypti Orco, 2.10-4 M VUAA1 with equimolar concentration of antagonist
T2 construct: expressed in transfected cells; host or cells: Xenopus oocytes injected with capped Orco RNA from linearized pSP64DV
T2 sequence (Q178U6 1-478): T1 sequence (Q178U6 1-478 partner)
From the text: FIG. 4A-Chemical structures of tested compounds. FIG. 4B-Representative current traces of oocytes expressing Aedes aegypti Orco following exposure to 2.10-4 M VUAA1 alone or in combination with equimolar concentrations of the antagonists octadienal and carvacrol. FIG. 4C-Normalized responses of AaegOrco to VUAA1 alone or in combination with octadienal or carvacrol. Odorants effects were statistically significant (one-way ANOVA followed by Tukey's post-test; P<0.0001; mean responses+s.e.m.; VUAA1 alone, n=7; octadienal & carvacrol n=6).
Orco expression, electrophysiology and purification. Supply of Orco-rich membranes will be predicated on the functional validation carried out using the two-electrode voltage clamp of Xenopus oocytes expressing this receptor. Expression and recordation of the pharmacological activity of mosquito odorant receptor complexes (ORx-Orco) in Xenopus oocytes has been studies extensively. This technique to study the agonist activity of Orco agonists (e.g., VUAA1) and antagonists (e.g., octadienal and carvacrol) (as shown in FIG. 4A) or associated with ORx has been achieved. In some cases Orco rather than ORx was used in order to reduce potential pitfalls associated with OR complexes. In some cases, ORx alone is not functional without its co-receptor chaperone. Two types of expression vectors adapted to Xenopus oocyte expression are used. pSP64DV was used to record currents reaching over 1 μA from Orco exposed to VUAA1, indicating high protein levels (FIG. 4B). Considering the objective to extract Orco-rich membrane fragments less than <50 nm in length, receptor density should be sufficient to ensure that these short fragments contain Orco. To evaluate Orco density, this gene was expressed using the pCMV6-AC-mKate expression vectors (Origene), or other tagged version. This plasmid functions well in Xenopus oocytes and adds a constitutively fluorescent mKate2 tag on the C-terminus of the protein of interest (here Orco) that can be directly or indirectly (fluorescence immunohistochemistry) detected by confocal scanning laser microscopy. […]

OR2 = OR2 (Anopheles gambiae, UniProt Q8WTE6); details: background, based on cell-based assays; cited from earlier work
Sequence of OR2 (Q8WTE6 whole entry, species assumed): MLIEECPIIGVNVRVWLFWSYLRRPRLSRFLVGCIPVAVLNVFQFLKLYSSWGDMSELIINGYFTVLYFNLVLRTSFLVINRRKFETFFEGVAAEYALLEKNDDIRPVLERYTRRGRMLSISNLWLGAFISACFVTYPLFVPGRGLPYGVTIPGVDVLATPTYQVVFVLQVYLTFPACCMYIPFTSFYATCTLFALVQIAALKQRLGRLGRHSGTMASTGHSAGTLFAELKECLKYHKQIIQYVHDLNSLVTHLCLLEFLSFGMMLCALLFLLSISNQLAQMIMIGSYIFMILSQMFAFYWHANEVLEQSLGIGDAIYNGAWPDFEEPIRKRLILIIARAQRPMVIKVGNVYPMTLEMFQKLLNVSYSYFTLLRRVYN
Sequence of OR2 (Q7QCC7 whole entry partner, species assumed): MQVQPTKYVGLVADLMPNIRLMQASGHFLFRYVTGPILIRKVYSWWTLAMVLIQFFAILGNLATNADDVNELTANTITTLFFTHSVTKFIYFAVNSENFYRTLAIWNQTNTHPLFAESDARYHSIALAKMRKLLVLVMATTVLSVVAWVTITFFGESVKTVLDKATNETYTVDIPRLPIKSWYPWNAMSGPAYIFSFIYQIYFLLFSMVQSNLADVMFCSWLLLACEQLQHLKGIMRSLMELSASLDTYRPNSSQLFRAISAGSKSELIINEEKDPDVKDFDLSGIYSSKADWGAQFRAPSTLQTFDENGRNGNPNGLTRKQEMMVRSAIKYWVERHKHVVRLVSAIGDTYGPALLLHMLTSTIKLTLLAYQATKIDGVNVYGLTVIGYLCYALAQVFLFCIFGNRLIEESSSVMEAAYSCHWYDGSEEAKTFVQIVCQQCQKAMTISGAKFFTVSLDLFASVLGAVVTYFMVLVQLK

[6] = cited from earlier work
OR9/OR10 = details: background, based on cell-based assays; cited from earlier work

For `C=C[C@H](O)CCCCC` [(R)-1-Octen-3-ol, (R)-1-octen-3-ol], which EC50 [1] is on record?
The EC50 was 213 nM.

And the EC50 [2]?
The EC50 was 401 nM.

What does the source list for `C=C[C@H](O)CCCCC` [(R)-1-octen-3-ol]?
sensitivity of TaOR8 (activating concentration range) [3]: parts per billion range; sensitivity of AaOR8 (activating concentration range) [4]: parts per billion range; concentration range at which OR8 is activated [5]: parts per billion range

With `CCc1ccc(NC(=O)CSc2nnc(-c3cccnc3)n2CC)cc1` [VUAA1] as the compound, how does the “currents recorded from Orco exposed to VUAA1” value (Aedes aegypti Orco; Xenopus oocytes, pSP64DV expression vector) read?
Its value is “over 1 μA”.

For `Cc1ccc(C(C)C)cc1O` [carvacrol], which “effect on VUAA1-activated Orco” value (Aedes aegypti Orco) is on record?
The value was “inhibit VUAA1-activated Orco”.

Which “concentration range of selective response of OR2” value (OR2) does the source give for `c1ccc2[nH]ccc2c1` [indole] here?
The value was “upper picomolar range”.

What about the solubility in water [6] of the same compound?
Its solubility in water is “sparingly soluble”.

For `Cc1c[nH]c2ccccc12` [skatole], which solubility in water [6] is on record?
Its solubility in water is “sparingly soluble”.

What about the “concentration range of selective response of OR9/OR10” value (OR9/OR10) of the same compound?
Its value is “upper picomolar range”.

For octadienal, which “effect on VUAA1-activated Orco” value (Aedes aegypti Orco) is on record?
The value was “inhibit VUAA1-activated Orco”.
